Results: patent EP0527427A2, “Catalysts and casting article, method, and composition” (MINNESOTA MINING AND MANUFACTURING COMPANY, priority 1991, dated 1993)

Legend:
[1] = pKa by potentiometric backtitration (compounds of Formula II, Table IX); type: physicochemical; settings: half-neutralization point taken as pKa; backtitration with 0.01N sodium hydroxide
Method: Several of the compounds of the invention were characterized by their titration curves (i.e., their pKa values) as follows: To a 0.1 g sample of a compound of the invention was added with stirring 60 mL of distilled water, then 10 mL of 0.1N hydrochloric acid was added. The solution was stirred for 10 minutes. The pH of the solution was then measured potentiometrically using a Metrohm Model 670 TITROPROCESSOR™ potentiometer (Brinkman Instruments Inc., Westbury, NY) while backtitrating with 0.01N sodium hydroxide solution. The endpoints and half-neutralization points were determined by the instrument, and for the purposes of this determination the half-neutralization point is taken as the pKa.

[2] = Farm.Zh. (Kiev) 1990, 1, 38; cited from earlier work
[3] = Khim.-Farm.Zh. 1983, 17, 916; cited from earlier work
[4] = pKa by potentiometric backtitration (catalysts, Table I); type: physicochemical; settings: half-neutralization point taken as pKa; backtitration with 0.1N sodium hydroxide
Method: The solution was stirred for 10 minutes, then backtitrated with 0.1N sodium hydroxide solution. The pH during backtitration was measured potentiometrically using a Metrohm Model 670 TITROPROCESSOR™ potentiometer (Brinkman Instruments Inc., Westbury, NY). The endpoint and half-neutralization point were determined by the instrument, and for the purposes of this determination the half-neutralization point is taken as the pKa.

Row | Structure (SMILES) | Measured pKa first [1] | Measured pKa second [1] | further results
1 | O=C(CN1CCCC1)OCCN1CCCC1 [2-(1-Pyrrolidinyl)ethyl 1-Pyrrolidineacetate] | 9.26 | 7.12 | 
2 | CN1CCCCC1COC(=O)CN1CCCC1 (stereo not shown) [2-(1-Methylpiperidyl)methyl 1-Pyrrolidineacetate] | 9.15 | 7.03 | 
3 | CCN(CC)CCOC(=O)CN(C)C [2-(Diethylamino)ethyl dimethylaminoacetate] |  |  | inotropic activity [2]: significant inotropic activity; analgesic activity [3]: analgesic activity
4 | O=C(CN1CCCC1)OCCN1CCCCC1 [2-(1-piperidino)ethyl 1-pyrrolidineacetate] | 8.97 | 6.72 | 
5 | CN(C)CCOC(=O)CN(C)C [(CH3)2NCH2C(O)OCH2CH2N(CH3)2, 2-(N,N-Dimethylamino)ethyl N,N-Dimethylaminoacetate] |  |  | Measured pKa first [4]: 8.53; Measured pKa second [4]: 6.49
